Assay results as given in patent US7256174B2, “Somatostatin and somatostatin agonists for treating insulin insensitivity and Syndrome X” (Societe de Conseils de Recherches et d'Applications …, priority 1997, dated 2007).
Bridge positions count the residues as written; N and C are the ends. Square brackets hold non-standard residues; d marks the D form. Peptide text beside a SMILES is read from it.

Key:
[1] = Insulin sensitivity study, oral glucose challenge after chronic treatment; format: in vivo, fatty (fa/fa) Zucker rats; conditions: 3 mg/kg s.c. twice daily, 7 days
Procedure: Male fatty Zucker rats (Harlan-Olac, Bicester, Oxon, U.K.), which were 15-17 weeks old, were randomly divided into two groups. The animals were house in pairs in a normal 12 hour light:12 hour darkness cycle at 20±2° C. and fed a standard laboratory rat diet (Beekay rat and mouse diet, Bantin & Kingman, Hull, Humberside, U.K.) ad libitum. For the group assigned to receive drug treatment, the rats received BIM-23268C at 3 mg/kg, by subcutaneous injection, twice a day at 10:00 AM and 5:00 PM. The other group, the control group, was treated with a subcutaneous injection of 0.1 ml/100 g of saline twice a day at 10:00 AM and 5:00 PM. […] On the last day of treatment, at 5:00 PM food was removed, and the rats were fasted overnight.
A method for assessing insulin sensitivity is to administer an oral glucose challenge and monitoring the secretion of insulin and disposal of glucose from the blood stream over a 240 min period (Bergman, R. N., et al., Endocrine Review 6:45-86 (1985)). […] 20 μl blood samples were taken from tail vein (Abdel-Halim, S. M., et al., Diabetes 43:281-288 (1994)) at −60 min, −30 min, 0 min, 30 min, 60 min, 90 min, 120 min, and 240 min.
The 20 μl samples were taken into 380 μl of hemolysis reagents (Sigma, Poole, Dorset, UK) containing 50 mg/liter of digitonin (Cat# D-1407) and 100 mg/liter of Maleimide (M-3766). From this, 100 μl of the hemolysed blood sample was added to 0.9 ml of Tinder reagent (Sigma Enzymatic calorimetric assay for blood glucose, Cat# 315-100, Sigma Chemical Co. Ltd, Poole, Dorset, UK). Blood glucose was determined according to vendor's recommendation at 505 nm.
Insulin was measured by the conventional radioimmunoassay method as described (Dunmore, S., & Beloff-Chain, A., J Endocrinol. 92:15-21 (1982)). Samples were assayed in triplicates with a 1:30000 dilution of an insulin antiserum (from guinea pig)raised in the laboratory (Dunmore, S. J., et al., J. Endocrinol. 137:375-381 (1993), and using ^125I-labelled bovine insulin, iodinated by the chloramine T method (Sambrook, et al., Molecular Cloning—A Laboratory Manual, Ed. 2., Cold Spring Harbor Laboratory Press, 1989). Rat insulin (2000U/0.1 ml, Novo Nordisk Laboratories, Basingstoke, Hants, U.K.) was used as a standard in the assay. The standards and samples were diluted in assay buffer containing NaH2PO4 5.7 g/L, bovine serum albumin (Sigma A4378, Sigma Chemical Co. Ltd., Poole, Dorset, UK) 5.0 g/L, NaN3 1.0 g/L buffered to pH 7.4). Antibody-bound insulin was separated on from free insulin by the addition of a second antibody (donkey anti-guinea pig Ig) coated on cellulose, Sac-Cel (IDS, Boldon, Tyne & Wear, UK). The antibody-bound insulin precipitate was separated by centrifugation. Counts bound were measured on an LKB Rackgamma solid scintillation counter.

[2] = Weight loss study, chronic (6 day) treatment; conditions: 3 mg/kg s.c. twice a day
[3] = Lipidemia study, plasma glycerol and triglycerides; format: in vivo, Obese (fa/fa) Zucker rats
Procedure: Obese (fa/fa) Zucker rats were treated as in example 1 above. On the last day of treatment (day 6), food was removed at 5:00 p.m., and the rats were fasted overnight. At 9:00 a.m. the next day, the animals were subjected to a glucose challenge, given as 0.8 gram/kg of glucose orally. Periodic 400 μl of blood samples were taken from the tail vein (Peterson, R. G., ILAR News, 32:16-19 (1990)) 60 min. and 30 min. before and at 30, 60, 90, and 120 min. after the administration of the glucose challenge (0.8 gram/kg orally). Aprotinin (Traysylol, Bayer UK, Hayward's Health, W. Sussex, U.K.) and heparin (Sigma Chemical Co., Poole, Dorset, U.K.) were added to the blood samples to a final concentration of 400 KIU/ml and 100 units/ml, respectively. Plasma fractions were prepared from these samples by centrifugation at 4000×G in a microfuge, for the estimation of triglycerides and glycerol. Samples were then stored at −80° C. until assayed.
Plasma glycerol and triglycerides were determined using the Sigma Enzymatic (Tinder) calorimetric assay kit (Cat #337-B, Sigma Chemical Co., Poole, Dorset, U.K.) and measuring absorbance at 540 nm in a spectrophotometer.

[4] = 0.8 g/kg oral glucose challenge
[5] = 3 mg/kg s.c. twice a day, six days, samples 30 and 60 minutes before oral glucose challenge
[6] = throughout the 2-hour test period after oral glucose challenge

**Q.** Which results are given for `C[C@@H](O)[C@@H]1NC(=O)[C@H](CCCCN)NC(=O)[C@@H](Cc2c[nH]c3ccccc23)NC(=O)[C@H](Cc2ccccc2)NC(=O)[C@H](Cc2ccccc2)NC(=O)[C@@H](N)CSSC[C@@H](C(N)=O)NC(=O)[C@H](Cc2ccccc2)NC1=O` [BIM-23268, H-Cys-Phe-Phe-D-Trp-Lys-Thr-Phe-Cys-NH2] (H-CFF[dW]KTFC-NH2; disulfide 1-8)?
**A.** hyperinsulinemia [1]: suppressing; insulin-sensitivity [1]: improvement; glucose tolerance [1, 4]: did not show an impairment; plasma glucose profile versus untreated group [1, 4]: not significantly different; glucose stimulated insulin secretion to the glucose challenge ([1]; 0.8 g/kg oral glucose challenge, vs saline control): significant suppression; body weight gain versus control ([2]; six days): lower; toxic effect / appearance of treated group ([2]; six days): appeared healthy; average food consumption ([2]; six days (control 26.0)): 25.9 g/rat/day; difference in amount of food consumed over the entire treatment period ([2]; six days, vs control): no difference; group mean weight after six days ([2]; after six days (control 414.09 to 418.89)): 413.6; group mean weight at the start of the trial ([2]; start of trial): 413.6; plasma glycerol [3, 5]: significantly lowered; plasma triglycerides [3, 5]: significantly lowered; reducing hypertriglyceridemia ([3]; 6-day treatment at 3 mg/kg s.c. twice a day): effective; plasma glycerol [3, 6]: significantly lower; plasma triglycerides [3, 6]: significantly lower
